Laboratory results from paper PMC7865305, “Pseudopeptide Amyloid Aggregation Inhibitors: In Silico, Single Molecule and Cell Viability Studies” (International Journal of Molecular Sciences, 2021).
Square brackets hold non-standard residues; d marks the D form. Peptide text beside a SMILES is read from it. * marks the point of attachment. NMeF = CN[C@@H](Cc1ccccc1)C(=O)O; Myristoyl = CCCCCCCCCCCCCC(=O)*; NMeL = CN[C@@H](CC(C)C)C(=O)O; Orn = NCCC[C@H](N)C(=O)O; Dab = NCC[C@H](N)C(=O)O; βAla = NCCC(=O)O

Columns and labels:
HT22 cells [1] = test: SG inhibitor toxicity, MTT assay; type: cell-based, mouse; conditions: 24 h; for HT22 cell viability, inhibitor alone: HT22 cells, 2.5, 5.0 and 10.0 µM, MTT, n = 4, vs control, one-way ANOVA with Dunnett
Procedure: (§1) The MTT assay was used to evaluate the viability of HT22 cells exposed to inhibitor or mixtures of inhibitor with full length Aβ(1–42). HT22 cells were plated into 96-well cell culture plates at a cell density of 100,000 cells/mL in full growth media (DMEM/F12, with 10% FBS, 1% Pen/Strep) at 37°C, 5% CO2, until 80% confluence (20–22 h). Full growth media was exchanged for treatment media (containing Aβ or Aβ with SG inhibitor). After treatment, cells are then returned to incubator for 24 h. The media was then exchanged for phenol red-free DMEM/F12 containing 0.5 mg/mL MTT. Cells were returned to the incubator to metabolize the MTT for 3.5 h, after which, cells were solubilized in isopropanol, with 10% Triton X-100 and 0.1 M HCl. After solubilization, absorbance from the 96-well plates was read in Molecular Dynamics™ plate reader at 570 nm and 690 nm. The signal at 690 nm and media control was subtracted from the 570 nm reading prior to analysis. HT22 cells were a generous gift from Dr. Robert Cumming, PhD, University of Western Ontario.
Inhibitor toxicity to HT22 cells was assessed by treating cells with inhibitor (SGA1, Myr-SGA1, SGA3, Myr-SGA3 or SGC1) at concentrations of 2.5, 5.0 and 10.0 µM for 24 h in triplicates, for n = 4 repeats. One-way ANOVA with Dunnett’s multiple comparisons test was performed to establish significance between inhibitor groups and vehicle-treated control, threshold for significance: α = 0.05. To assess SG inhibitor neuroprotection against Aβ(1–42) oligomers, Aβ(1–42) alone or Aβ(1–42) mixed with each inhibitor at the ratios described above were applied to cells in quadruplicates for n = 3 repeats. One-way ANOVA with Dunnett’s multiple comparisons was performed to establish significance between Aβ-SG inhibitor mixture and Aβ-treated control; threshold for significance: α = 0.05.

HT22 cells [2] = type: cell-based, mouse; conditions: MTT; for HT22 cell viability with Aβ(1–42) and myristoylated inhibitor: 5 µM Aβ(1–42) with Myr-SG inhibitor, 24 h, Figure 7B, n = 3
Procedure: as §1
Aβ(1–42) oligomers were prepared following protocols adapted from Stine et al.. Briefly, Aβ(1–42) was dissolved in HFIP to 1 mg/mL solution and aliquoted into microcentrifuge tubes, and allowed to evaporate under desiccant for 24 h, leaving behind a thin film of Aβ(1–42) monomers, which was stored at […] under desiccant. Immediately prior to use, Aβ(1–42) monomers were suspended in dimethyl sulfoxide (DMSO) at a concentration of 5 mM, vortexed for 30 s, pulse centrifuged for 30 s and then sonicated for 10 min at room temperature. The 5 mM Aβ(1–42) monomer solution prepared in DMSO was then diluted to 100 µM in cold DMEM/F12 media, then further diluted to 5 µM in fresh DMEM/F12 or DMEM/F12 containing SG inhibitor at various concentrations corresponding to a final ratio of 5:1, 2:1, 1:1 and 1:2 Aβ to SG. […]
Inhibitor toxicity to HT22 cells was assessed by treating cells with inhibitor (SGA1, Myr-SGA1, SGA3, Myr-SGA3 or SGC1) at concentrations of 2.5, 5.0 and 10.0 µM for 24 h in triplicates, for n = 4 repeats. […]

[3] = system: Aβ(1–42)-Aβ(1–42) dimerization; set-up: method as in 2 sources, ref [21] = [21]; PMID 24321883; doi:10.1016/j.bios.2013.10.060; 21. Hane F.T. Lee B.Y. Petoyan A. Rauk A. Leonenko Z. Testing synthetic amyloid-β aggregation inhibitor using single molecule atomic force spectroscopy Biosens. Bioelectron. 2014 54 492 498 10.1016/j. ||| ref [30] = [30]; PMID 28844735; doi:10.1016/j.bbapap.2017.07.022; 30. Robinson M. Mehrazma B. Opare S.K.A. Petoyan A. Lou J. Hane F.T. Rauk A. Leonenko Z. Pseudo-peptide Amyloid-β Blocking Inhibitors: Molecular Dynamics and Single Molecule Force Spectroscopy Study B; conditions: cited from earlier work; for Shift of Aβ binding probability across unbinding force distribution / Binding probability of Aβ: SMFS, ref [30]; for Binding probability of Aβ: no significant difference between inhibitors
Aβ(1–42) [4] = conditions: ThT fluorescence, 25 μM Aβ(1–42), 37 °C, 5 to 7 days; ref [33]; cited from earlier work
Procedure: (§2) Experimental validation of the effect of SGA1 on amyloid aggregation and structure was performed previously by several methods: including ThT fluorescence, circular dichroism (CD), Western blot and AFM imaging. The influence of SGA1 on Aβ(1–40) and Aβ(1–42) aggregation by ThT fluorescence assay was performed at a concentration of 25 μM Aβ(1–40) and Aβ(1–42) at 37 °C for 5 to 7 days, across a broad range of SG inhibitor concentration to determine the IC50 inhibitory ligand:Aβ ratio [33].

Aβ(1–42) [5] = conditions: AFM, 110 μM Aβ(1–42), 1:1 ratio, 1, 6 and 24 h on mica, vs Aβ-only control; ref [21]; cited from earlier work
Procedure: In Hane et al., solutions of Aβ(1–42) (prepared by the Fezoui method) with and without SGA1 were deposited onto freshly cleaved mica at 1:1 ratio with a final concetration of 110 μM Aβ(1–42), and then incubated for 1, 6 and 24 h, before being washed, dried and than imaged by AFM (Figure 4, adapted with permission).

Aβ(1–40) = conditions: ThT fluorescence, 25 μM Aβ(1–40), 37 °C, 5 to 7 days; ref [33]; cited from earlier work
Procedure: as §2, with “[33]. For SGA1, the IC50 ligand:Aβ(1–40) ratio occurred at 0.2, while the control, N-methylated KLVFF peptide (A ...” for “[33].”

CCCCCCCCCCCCCC(=O)N[C@@H](CCN)C(=O)N[C@@H](CCCN)C(=O)N(C)[C@@H](CC(C)C)C(=O)N[C@@H](Cc1ccccc1)C(=O)N(C)[C@@H](Cc1ccccc1)C(=O)N[C@@H](CC(C)C)C(=O)N[C@@H](C)C(=O)N[C@@H](CCC(=O)O)C(N)=O [Myr-SGA3] (Myristoyl-[Dab][Orn][NMeL]F[NMeF]LAE-NH2; C-terminus assumed)
IC50 (HT22 cells [1]): ~7.5 µM | HT22 cell viability, inhibitor alone (HT22 cells [1]): significant reductions in HT22 cell viability at 5 and 10 µM | HT22 cell viability with Aβ(1–42) and myristoylated inhibitor (HT22 cells [2]): below 30%

CCCCCCCCCCCCCC(=O)N[C@@H](CCN)C(=O)N[C@@H](CCCN)C(=O)N(C)[C@@H](CC(C)C)C(=O)N[C@@H](Cc1ccccc1)C(=O)N(C)[C@@H](Cc1ccccc1)C(=O)N[C@@H](CC(C)C)C(=O)N1CCC[C@H]1C(=O)NCCC(=O)O [Myr-SGA1] (Myristoyl-[Dab][Orn][NMeL]F[NMeF]LP[βAla]-OH; N-terminus and C-terminus assumed)
Shift of Aβ binding probability across unbinding force distribution [3]: decreased the binding probability at higher force | Binding probability of Aβ [3]: reduced the binding probability of Aβ | IC50 (HT22 cells [1]): ~7.5 µM | HT22 cell viability, inhibitor alone (HT22 cells [1]): significant reductions in HT22 cell viability at 5 and 10 µM | HT22 cell viability with Aβ(1–42) and myristoylated inhibitor (HT22 cells [2]): below 30%

Glu-Ala-(Me)Phe-Phe-(Me)Phe-Leu-Orn-Daba [SGC1]
Shift of Aβ binding probability across unbinding force distribution [3]: increased the binding probability at higher force | Binding probability of Aβ [3]: reduced the binding probability of Aβ | Effect on Aβ(1–42) toxicity (HT22 cells [2]; 5 µM Aβ(1–42), Aβ/SG 5:1, 2:1, 1:1, 1:2, 24 h, n = 3, vs Aβ-treated group): no statistically significant effect

CC(=O)N[C@@H](CCN)C(=O)N[C@@H](CCCN)C(=O)N(C)[C@@H](CC(C)C)C(=O)N[C@@H](Cc1ccccc1)C(=O)N(C)[C@@H](Cc1ccccc1)C(=O)N[C@@H](CC(C)C)C(=O)N[C@@H](C)C(=O)N[C@@H](CCC(=O)O)C(N)=O [SGA3] (Ac-[Dab][Orn][NMeL]F[NMeF]LAE-NH2; N-terminus and C-terminus assumed)
Shift of Aβ binding probability across unbinding force distribution [3]: more uniformly reduced binding probability across the unbinding force distribution | Binding probability of Aβ [3]: reduced the binding probability of Aβ | HT22 cell viability, inhibitor alone (HT22 cells [1]): no significant reduction in cell viability was observed

CC(=O)N[C@@H](CCN)C(=O)N[C@@H](CCCN)C(=O)N(C)[C@@H](CC(C)C)C(=O)N[C@@H](Cc1ccccc1)C(=O)N(C)[C@@H](Cc1ccccc1)C(=O)N[C@@H](CC(C)C)C(=O)N1CCC[C@H]1C(=O)NCCC(=O)O [SGA1] (Ac-[Dab][Orn][NMeL]F[NMeF]LP[βAla]-OH; N-terminus and C-terminus assumed)
Number of Aβ binding events ([3]; SMFS proof-of-concept study, ref [21]): decreases the number Aβ binding events in a concentration dependent manner | HT22 cell viability, inhibitor alone (HT22 cells [1]): no significant reduction in cell viability was observed | IC50 inhibitory ligand/Aβ1–42 ratio (Aβ(1–42) [4]): 0.5 | Fibril length of Aβ(1–42) aggregates (Aβ(1–42) [5]): greatly reduced | IC50 ligand:Aβ(1–40) ratio (Aβ(1–40)): 0.2
